The subject of assay [1] is L1210. The experiment in a line: Compound was tested for its inhibitory concentration to inhibit the growth of wild type L1210 cells and a subline (L1210 / R81). Type of assay: functional, cell-based. The following applies: Mus musculus.
For assay [2], the system named is L1210. The experiment in a line: Compound was tested for its inhibitory concentration to inhibit the growth of wild type L1210 cells. Type of assay: functional, cell-based, Mus musculus.
In assay [3] the test system is Mus musculus. The experiment in a line: Increase in life span of mice with L1210 leukemia cells at a dose of 80 mg/kg. It is filed as functional.
Assay [4] deals with Mus musculus. The experiment in a line: Increase in life span of mice with L1210 leukemia cells at a dose of 80 mg/kg in exp 1. Type of assay: functional.
Assay [5] relates to Mus musculus. The experiment in a line: Increase in life span of mice with L1210 leukemia cells at a dose of 100 mg/kg. It is filed as functional.
The test system of assay [6] is Mus musculus. The experiment in a line: Increase in life span of mice with L1210 leukemia cells at a dose of 40 mg/kg in exp 1. It is filed as functional.
The test system of assay [7] is Mus musculus. The experiment in a line: Median Survival days of mice infected with L1210 leukemia cells at dose 80 mg/kg relative to that of 9 days for control in expt 2. It is filed as functional.
Assay [8] has as its system Mus musculus. The experiment in a line: Median Survival days of mice infected with L1210 leukemia cells at dose 40 mg/kg relative to that of 9 days for control in expt 1. Type of assay: functional.
The test system of assay [9] is Mus musculus. The experiment in a line: Median Survival days of mice infected with L1210 leukemia cells at dose 100 mg/kg relative to that of 9 days for control in expt 2. It is filed as functional.
For assay [10], the system named is Mus musculus. The experiment in a line: Median Survival days of mice infected with L1210 leukemia cells at dose 80 mg/kg relative to that of 9 days for control in expt 1. It is filed as functional.
The species named for assay [11] is Mus musculus. The experiment in a line: Compound was tested against weight change in mice with L1210 leukemia cells on 7 th Day at Dose 100 mg / kg. Type of assay: functional. The following applies: at 100 mg/kg.
The target in assay [12] is T1, Dihydrofolate reductase (Mus musculus) (UniProt P00375).
T1 sequence (whole entry): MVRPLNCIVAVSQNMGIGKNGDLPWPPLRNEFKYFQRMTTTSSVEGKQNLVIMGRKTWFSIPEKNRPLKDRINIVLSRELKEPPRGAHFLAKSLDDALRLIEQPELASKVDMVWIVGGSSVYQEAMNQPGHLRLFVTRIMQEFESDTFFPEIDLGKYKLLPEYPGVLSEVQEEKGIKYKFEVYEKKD
The following applies: L1210.
Description: Compound was tested for inhibition of the enzyme DiHydroFolate Reductase (DHFR) from murine L1210 leukemia cells

A further assay deals with T2, Dihydrofolate reductase (Mus musculus, UniProt P00375).
T2 sequence (P00375 whole entry): T1 sequence (whole entry)
The experiment in a line: biochemical.

The species named for assay [13] is Mus musculus. The experiment in a line: Compound was tested against weight change in mice with L1210 leukemia cells on 10 th Day at Dose 80 mg / kg. To be noted: at 80 mg/kg.
Assay [14] is filed under the species Mus musculus. The experiment in a line: Compound was tested against weight change in mice with L1210 leukemia cells on 10 th Day at Dose 40 mg / kg. The following applies: at 40 mg/kg.
Assay [15] is filed under the species Homo sapiens. The experiment in a line: Compound was tested for its inhibitory concentration against human leukemic lymphoblasts (CEM Cells). Type of assay: functional. The following applies: CCRF-CEM.
The species entered for assay [16] is Homo sapiens. The experiment in a line: Compound was tested for its inhibitory concentration against human leukemic lymphoblasts (CEM Cells) and a resistant subline (CEM / MTX). The following applies: CCRF-CEM. Type of assay: functional.
Assay [17] concerns L1210. The experiment in a line: cells. To be noted: Mus musculus.
Description: Compound was tested for its inhibitory concentration to inhibit the growth of wild type L1210 cells; Range=0.01 to 0.03
Assay [18] is filed under the species Homo sapiens. The experiment in a line: Compound was tested for its inhibitory concentration against human leukemic lymphoblasts (CEM Cells). Type of assay: functional. The following applies: CCRF-CEM.
Assay [19] concerns L1210. The experiment in a line: Compound was tested for its inhibitory concentration to inhibit the growth of wild type L1210 cells; Mean of four separate assays. It is filed as functional, cell-based. To be noted: Mus musculus.
The subject of assay [20] is Mus musculus. The experiment in a line: Increase in life span of mice with L1210 leukemia cells at a dose of 80 mg/kg in expt 2. Type of assay: functional.
The subject of assay [21] is Mus musculus. The experiment in a line: Increase in life span of mice with L1210 leukemia cells at a dose of 80 mg/kg in expt 2; Toxic. On the set-up: dose 80 mg/kg. Type of assay: functional, organism-based.
Assay [22] deals with Mus musculus. The experiment in a line: Increase in life span of mice with L1210 leukemia cells at a dose of 40 mg/kg in expt 2; Toxic. Type of assay: functional, organism-based. Also on record: dose 40 mg/kg.
The test system of assay [23] is Mus musculus. The experiment in a line: Increase in life span of mice with L1210 leukemia cells at a dose of 10 mg/kg in expt 1. It is filed as functional.
Assay [24] concerns Mus musculus. The experiment in a line: Median Survival days of mice infected with L1210 leukemia cells at dose 80 mg/kg relative to that of 9 days for control in expt 1; Toxic. On the set-up: dose 80 mg/kg. Type of assay: functional, organism-based.
The test system of assay [25] is Mus musculus. The experiment in a line: Median Survival days of mice infected with L1210 leukemia cells at dose 40 mg/kg relative to that of 9 days for control in expt 1; Toxic. Also on record: dose 40 mg/kg. It is filed as functional, organism-based.
In assay [26] the test system is Mus musculus. The experiment in a line: Median Survival days of mice infected with L1210 leukemia cells at dose 10 mg/kg relative to that of 9 days for control in expt 1. Type of assay: functional.
Assay [27] has as its system Mus musculus. The experiment in a line: Median Survival days of mice infected with L1210 leukemia cells at dose 20 mg/kg relative to that of 9 days for control in expt 1. It is filed as functional.
The species entered for assay [28] is Mus musculus. The experiment in a line: Compound was tested against weight change in mice with L1210 leukemia cells on 7 th Day at Dose 10 mg / kg. It is filed as functional. To be noted: at 10 mg/kg.
The species named for assay [29] is Mus musculus. The experiment in a line: Compound was tested against weight change in mice with L1210 leukemia cells on 10 th Day at Dose 20 mg / kg. The following applies: at 20 mg/kg.
For assay [30], the species on record is Homo sapiens. The experiment in a line: Compound was tested for its inhibitory concentration against human leukemic lymphoblasts ( CEM Cells ). It is filed as functional. To be noted: CCRF-CEM.
The test system of assay [31] is L1210. The experiment in a line: Compound was tested for its inhibitory concentration to inhibit the growth of wild type L1210 cells and a subline ( L1210 / R81 ). Type of assay: functional, cell-based. To be noted: Mus musculus.
Assay [32] deals with Mus musculus. The experiment in a line: Increase in life span of mice with L1210 leukemia cells at a dose of 80 mg/kg; Toxic. Type of assay: functional, organism-based. Also on record: dose 80 mg/kg.
For assay [33], the system named is Mus musculus. The experiment in a line: Increase in life span of mice with L1210 leukemia cells at a dose of 20 mg/kg. Type of assay: functional.
In assay [34] the test system is Mus musculus. The experiment in a line: Increase in life span of mice with L1210 leukemia cells at a dose of 40 mg/kg. Type of assay: functional.
Assay [35] has as its system Mus musculus. The experiment in a line: Median Survival days of mice infected with L1210 leukemia cells at dose 20 mg/kg relative to that of 9 days for control. Type of assay: functional.
Assay [36] has as its system Mus musculus. The experiment in a line: Median Survival days of mice infected with L1210 leukemia cells at dose 40 mg/kg relative to that of 9 days for control. It is filed as functional.
The subject of assay [37] is Mus musculus. The experiment in a line: Median Survival days of mice infected with L1210 leukemia cells at dose 80 mg/kg relative to that of 9 days for control; Toxic. It is filed as functional, organism-based. Also on record: dose 80 mg/kg.

Where “and” joins values, the source holds several entries; their conditions need not be identical. Equal values may be shown once.

For the compound `Nc1nc(N)c2nc(CNc3ccc(C(=O)NC(CCC(=O)NCc4c(Cl)cccc4Cl)C(=O)O)cc3)cnc2n1` (centres undefined), the IC50 (as a rule, the concentration at which inhibition is half-maximal) with L1210 [1] was 61000 nM; with L1210 [2] (Mus musculus, L1210), 3.7 nM; in the assay on L1210 [2] (l1210) it was 2 nM; against Dihydrofolate reductase it was 80 nM. For the same compound, the ILS at 80 mg/kg in the assay on Mus musculus [3] and in the assay with Mus musculus [4] was 44% in each case. In addition, the ILS (as a rule, how much longer treated animals lived than controls) at 100 mg/kg in the assay with Mus musculus [5] was 67%. The ILS at 40 mg/kg in the assay on Mus musculus [6] worked out at 56%. Also, the Survival was determined as 13 days with Mus musculus [7], 13 days in the assay with Mus musculus [8], 15 days in the assay on Mus musculus [9] and 14 days in the assay on Mus musculus [10]. Besides, the Weight change in the assay filed under Mus musculus [11] is -3%; in the assay listed under Mus musculus [13] it was 3% and 9%; in the assay filed under Mus musculus [14] it was 6%. Besides, the IC50/[E] in assay [12] was 2.
On to `CN(Cc1cnc2nc(N)nc(N)c2n1)c1ccc(C(=O)N[C@@H](CCC(=O)O)C(=O)O)cc1` [METHOTREXATE], for which the IC50 in the assay filed under Homo sapiens [15] is 32 nM; in the assay filed under Homo sapiens [16], 6600 nM; with L1210 [17], 30 nM.
For the compound `Nc1nc(N)c2nc(CNc3ccc(C(=O)NC(CCC(=O)Nc4ccc5c(c4)OCO5)C(=O)O)cc3)cnc2n1` (centres undefined), the IC50 in the assay listed under Homo sapiens [16] stood at 1000 nM; in the assay filed under Homo sapiens [18] it was 140 nM; in the assay on L1210 [1] it was 28000 nM; with L1210 [2] (Mus musculus, L1210) it was 3.2 nM; in the assay on L1210 [19] it was 0.39 nM; on Dihydrofolate reductase, 45 nM. The same compound returned an ILS at 80 mg/kg in the assay with Mus musculus [20] of 33%. Besides, the ILS entry in the assay with Mus musculus [21] and with Mus musculus [22] was “Toxic” throughout. The same compound yielded an ILS at 10 mg/kg in the assay with Mus musculus [23] of 56%. The Survival entry in the assay with Mus musculus [24] was “Toxic”; with Mus musculus [25] it was “Toxic”; in the assay with Mus musculus [26], 12 days; with Mus musculus [27], 14 days. Also, the Weight change in the assay listed under Mus musculus [28] is 7%; in the assay filed under Mus musculus [13] it was -26%; in the assay filed under Mus musculus [29] it was 3%; in the assay listed under Mus musculus [14], -20%. In [12], this compound had an IC50/[E] of 1.1.
With `Nc1nc(N)c2nc(CNc3ccc(C(=O)NC(CCC(=O)NCc4ccccc4)C(=O)O)cc3)cnc2n1` (centres undefined), the half-inhibitory concentration (IC50) is 65 nM in the assay filed under Homo sapiens [30]; 6000 nM in the assay filed under Homo sapiens [16]; 5 nM in the assay with L1210 [2] (Mus musculus, L1210); 7.1 nM with L1210 [2] (l1210); 17000 nM in the assay on L1210 [31]; 87 nM against Dihydrofolate reductase. For the same compound, the ILS entry with Mus musculus [32] is “Toxic”. This compound displayed an increase in lifespan (ILS) at 20 mg/kg with Mus musculus [33] of 33%. In the assay with Mus musculus [34], the ILS at 40 mg/kg came out at 56%. In addition, the Survival with Mus musculus [35] is 12 days; in the assay with Mus musculus [36], 14 days; with Mus musculus [37], “Toxic”. Moreover, the IC50/[E] in assay [12] is 2.2. Further, the Weight change in the assay listed under Mus musculus [13] was -26%; in the assay listed under Mus musculus [29] it was 13%; in the assay listed under Mus musculus [14] it was 3%.

The values are drawn from ChEMBL document CHEMBL1123432, “Methotrexate analogues. 28. Synthesis and biological evaluation of new gamma-monoamides of aminopterin and methotrexate” (J Med Chem, 1986).
